Assay [1] concerns P388. Briefly: Inhibitory activity against P388 murine leukemia at 2 mg/kg concentration. Type of assay: functional, Mus musculus.
Assay [2] relates to Mus musculus. Description: Number of surviving Mice after 60 days of administration of the compound; Survivals= 0/6. Type of assay: functional.
Assay [3] deals with Mus musculus. Description: Number of surviving Mice in the presence (N,N''-bis(2-chloroethyl)-N-nitrosourea) of BCNU after 60 days of administration of the compound; Survivals= 6/6. Type of assay: functional.
The species named for assay [4] is Mus musculus. Description: Rate of survival of treated Mice to survival of controls * 100. Type of assay: functional.

On to `COc1ccc2nc3cc(Cl)ccc3c(NCCCN(CCCN(CCn3cnc4c(N)ncnc43)C(=N)N)C(=N)N)c2c1`, for which the Survival in assay [1] was determined as 16.2 days; in assay [2] it was 0; in assay [3], 6. In assay [4], this molecule showed a T/C of 109.
